Measured values as given in US9513280B2, “Microfluidic biological barrier model and associated method” (The University of Utah Research Foundation, priority 2012, dated 2016).
Where two headings read alike, the source gives them in different places.

Test system: co-cultured μBBB models (bEnd.3 endothelial cells and C8-D1A astrocytes)
Details: for period of transient TEER drop: co-cultured μBBB on day 4
Experimental: To evaluate the fabricated μBBB system, three methods were employed: (1) Cell imaging to observe structure and morphology, (2) TEER levels to evaluate cell confluence and tight junction integrity, and (3) permeability assays to evaluate barrier selectivity. Cells were imaged with a Live/Dead assay to verify cell viability, and immunostained to look at expression of astrocyte marker GFAP and tight junction component […] (ZO-1). TEER was measured as an indicator of cell confluence and tight junction integrity, with time to maximum TEER being indicative of BBB development time. Fluxes of fluorescent-labeled tracer molecules were measured to assess permeability to larger solutes. […] Permeability was measured in μBBB models exposed to DMEM:F12 media with elevated pH (>10) for 4 h.
Over the course of the μBBB model evaluation experiments, TEER was measured twice a day to monitor cell confluence and development of tight junctions. For measurement of TEER, voltage and current electrode wires were connected via an electrode adaptor (WPI) to an EVOM2 epithelial voltohmmeter (WPI). The EVOM2 passes a constant 10 μA AC current at 12.5 Hz while measuring resistance. To calculate TEER, initial D0 Background resistances Rb were subtracted from total resistance RC at each time point and normalized for area, giving TEER values in Ωcm^2 as in the following equation: TEER=(RC−Rb)A
TEER of transwell cultures were measured daily by placing them in an Endohm chamber (WPI) and connecting it to the EVOM2.

## NCCc1c[nH]cn1 [histamine]
100 μM histamine
  time for TEER to return to initial levels: within six minutes
  period of transient TEER drop: 5 to 7 min
150 μM histamine
  time for TEER to return to initial levels: ≤ 15 min
  period of transient TEER drop: 8 to 15 min
